In ChEMBL document CHEMBL5523756, “Molecular Transformers: Adaptive Multitarget Ligands for Esterase-Induced Transition from Analgesics to Anesthetics” (J Med Chem, 2024):
Calls of active or inactive are those of the source.

What was measured:
[1] = Stability of compound assessed as porcine liver esterase mediated propofol release by measuring half life at 1 mg/ml by HPLC analysis; type: ADME, Sus scrofa; details: pig, isolated protein
[2] = biological target: T1, Sodium channel protein type 10 subunit alpha (Homo sapiens, UniProt Q9Y5Y9); assay: Binding affinity to Nav1.8 (unknown origin) expressed in HEK293T cells assessed as retention time of compound at 1 mg/ml by cell membrane chromatography; type: cell membranes
T1 sequence (Q9Y5Y9 whole entry, looked up): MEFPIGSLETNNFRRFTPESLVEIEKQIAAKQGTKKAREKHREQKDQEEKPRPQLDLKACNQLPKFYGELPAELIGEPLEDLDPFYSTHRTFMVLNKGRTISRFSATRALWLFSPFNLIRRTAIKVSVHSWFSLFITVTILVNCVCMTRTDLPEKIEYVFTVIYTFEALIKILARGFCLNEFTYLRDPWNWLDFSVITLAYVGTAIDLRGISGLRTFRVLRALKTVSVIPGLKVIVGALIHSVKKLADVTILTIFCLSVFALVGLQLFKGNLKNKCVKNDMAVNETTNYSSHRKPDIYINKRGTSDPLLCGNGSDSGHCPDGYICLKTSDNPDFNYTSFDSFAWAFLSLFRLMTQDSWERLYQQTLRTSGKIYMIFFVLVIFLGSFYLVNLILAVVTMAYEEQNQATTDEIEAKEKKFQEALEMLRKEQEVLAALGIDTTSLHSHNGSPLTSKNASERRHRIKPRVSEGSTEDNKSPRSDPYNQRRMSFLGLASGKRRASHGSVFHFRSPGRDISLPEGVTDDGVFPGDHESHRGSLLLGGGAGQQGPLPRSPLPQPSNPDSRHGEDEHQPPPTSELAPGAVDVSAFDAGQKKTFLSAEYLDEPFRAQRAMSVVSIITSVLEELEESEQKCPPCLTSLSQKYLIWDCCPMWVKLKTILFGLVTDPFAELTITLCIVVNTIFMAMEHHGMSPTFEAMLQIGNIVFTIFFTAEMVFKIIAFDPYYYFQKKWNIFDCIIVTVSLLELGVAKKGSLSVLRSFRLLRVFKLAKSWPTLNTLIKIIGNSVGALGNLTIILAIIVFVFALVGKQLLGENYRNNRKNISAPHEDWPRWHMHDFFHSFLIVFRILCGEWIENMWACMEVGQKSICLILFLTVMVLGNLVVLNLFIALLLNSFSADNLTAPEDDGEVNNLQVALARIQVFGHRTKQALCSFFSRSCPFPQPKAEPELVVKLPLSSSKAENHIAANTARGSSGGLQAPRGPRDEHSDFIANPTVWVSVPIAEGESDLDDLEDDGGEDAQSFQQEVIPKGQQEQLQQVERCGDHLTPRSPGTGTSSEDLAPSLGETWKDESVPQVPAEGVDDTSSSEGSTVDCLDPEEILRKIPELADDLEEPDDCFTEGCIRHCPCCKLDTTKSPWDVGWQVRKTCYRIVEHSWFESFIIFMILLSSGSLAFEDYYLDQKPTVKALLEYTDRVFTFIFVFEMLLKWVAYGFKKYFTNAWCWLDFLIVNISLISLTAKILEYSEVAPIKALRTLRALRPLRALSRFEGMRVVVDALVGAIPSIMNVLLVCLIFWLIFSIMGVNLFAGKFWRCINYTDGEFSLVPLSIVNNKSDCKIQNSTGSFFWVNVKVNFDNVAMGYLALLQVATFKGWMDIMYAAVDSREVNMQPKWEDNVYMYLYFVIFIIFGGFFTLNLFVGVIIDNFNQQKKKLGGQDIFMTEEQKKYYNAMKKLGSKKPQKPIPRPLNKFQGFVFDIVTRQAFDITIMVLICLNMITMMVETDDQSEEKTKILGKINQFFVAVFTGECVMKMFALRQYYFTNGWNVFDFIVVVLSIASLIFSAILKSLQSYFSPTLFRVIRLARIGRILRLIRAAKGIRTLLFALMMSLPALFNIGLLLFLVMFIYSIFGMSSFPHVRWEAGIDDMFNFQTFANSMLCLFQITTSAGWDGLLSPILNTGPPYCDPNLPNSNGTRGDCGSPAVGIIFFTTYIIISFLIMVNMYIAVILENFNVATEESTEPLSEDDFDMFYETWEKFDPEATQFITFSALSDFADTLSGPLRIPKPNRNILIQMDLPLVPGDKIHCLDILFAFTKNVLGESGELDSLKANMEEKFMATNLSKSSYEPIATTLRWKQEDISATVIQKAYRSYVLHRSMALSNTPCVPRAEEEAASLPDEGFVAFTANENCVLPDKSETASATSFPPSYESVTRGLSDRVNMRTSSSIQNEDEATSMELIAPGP

[3] = biological target: T1, Sodium channel protein type 10 subunit alpha; assay: Inhibition of Nav1.8 channel (unknown origin) at -120 mV conditioning pulse by voltage clamp electrophysiological recording
Mus musculus [4] = assay: Analgesic effect in ICR mouse model of CFA-induced chronic inflammatory pain assessed as increase in paw withdrawal threshold at 0.07 mmol/kg, ip measured upto 90 mins by Von Frey test; type: functional, organism-based
[5] = biological target: GABA-A receptor; alpha-1/beta-2/gamma-2 (Homo sapiens) (UniProt P14867+P47870+P18507); assay: Agonist activity at alpha1beta2gamma2 GABA-A receptor (unknown origin) at 10 uM at -70 mV holding potential by electrophysiological recording; type: protein-complex assay; details: filed as agonist
Mus musculus [6] = assay: Anesthetic effect in iv dosed ICR mouse by up-and-down method; type: functional
[7] = Toxicity in ICR mouse assessed as survival rate at 1.5 times ED50 administered intravenously; details: in vivo, route iv
[8] = biological target: T1, Sodium channel protein type 10 subunit alpha; assay: Binding affinity to Nav1.8 (unknown origin) expressed in HEK293T cells at 1 mg/ml by cell membrane chromatography; type: cell membranes

## CC1CN(CC(=O)Oc2c(C(C)C)cccc2C(C)C)CC(C)O1.Cl (configuration not stated)
[1]
  t1/2: 7.227 min
[2]
  Retention time: 0.5 min

## COc1cc(-c2cc(C(=O)O)n[nH]2)ccc1Oc1c(C(C)C)cccc1C(C)C
[3]
  inhibition: Active

## CC(C)c1cccc(C(C)C)c1OC(=O)OCCN1CCN(C(C)C)CC1.Cl
[1]
  t1/2: > 120 min

## CCN1CCN(CCC(=O)Oc2c(C(C)C)cccc2C(C)C)CC1.Cl
[1]
  t1/2: > 120 min

## COCCN(CCOC)CC(=O)Oc1c(C(C)C)cccc1C(C)C.Cl
[1]
  t1/2: 6.712 min

## CC1CC(C)CN(CCOC(=O)Oc2c(C(C)C)cccc2C(C)C)C1.Cl (configuration not stated)
[1]
  t1/2: 9.305 min
[2]
  Retention time: > 110 min

## CC(C)c1cccc(C(C)C)c1O
Mus musculus [4]
  Activity: inactive
[5]
  Activity: Active

## CC(C)c1cccc(C(C)C)c1OC(=O)CN1CCSCC1.Cl
[1]
  t1/2: 22.97 min

## CCCN(CCO)CCOC(=O)Oc1c(C(C)C)cccc1C(C)C.Cl
[1]
  t1/2: < 8.609 min

## CCN(CC)CCCOC(=O)Oc1c(C(C)C)cccc1C(C)C.Cl
[1]
  t1/2: < 8.609 min
[2]
  Retention time: 37.1 min

## CC(C)c1cccc(C(C)C)c1OC(=O)CN1CCN(C(C)C)CC1.Cl
[1]
  t1/2: > 120 min

## COCCN(CCOC)CCOC(=O)Oc1c(C(C)C)cccc1C(C)C.Cl
[1]
  t1/2: 6.925 min

## Cc1cc(F)ccc1Oc1cc(C(F)(F)F)ccc1C(=O)Nc1ccn(COP(=O)(O)O)c(=O)c1
[2]
  Retention time: 2.6 min

## CCN1CCN(CCOC(=O)Oc2c(C(C)C)cccc2C(C)C)CC1.Cl
[1]
  t1/2: 4.684 min

## CC(C)c1cccc(C(C)C)c1OC(=O)CN1CCN(CCO)CC1.Cl
[1]
  t1/2: > 120 min

## CC(C)c1cccc(C(C)C)c1OC(=O)CCN1CCOCC1
[2]
  Retention time: 0.9 min

## CC1CN(CCOC(=O)Oc2c(C(C)C)cccc2C(C)C)CC(C)O1 (configuration not stated)
[2]
  Retention time: 11.8 min

## CC(C)c1cccc(C(C)C)c1OC1CCN(c2ccc(C(=O)O)cc2)CC1
[3]
  inhibition: Active

## CC(C)c1cccc(C(C)C)c1OC(=O)CN1CCS(=O)(=O)CC1.Cl
[1]
  t1/2: > 30 min

## CCN(CC)CCC(=O)Oc1c(C(C)C)cccc1C(C)C.Cl
[1]
  t1/2: 3.288 min
Mus musculus [4]
  Activity: Active
Mus musculus [6]
  ED50: 64 µmol/kg
[2]
  Retention time: 18.5 min
[7]
  survival: 100%

## CC(C)c1cccc(C(C)C)c1OC(=O)OCCN1CCSCC1.Cl
[1]
  t1/2: 4.03 min

## CC(C)c1cccc(C(C)C)c1OC(=O)OCCN1CCCCC1
[2]
  Retention time: 1 min

## CCN1CCN(CC(=O)Oc2c(C(C)C)cccc2C(C)C)CC1.Cl
[1]
  t1/2: > 120 min

## CC(C)c1cccc(C(C)C)c1C(=O)c1ccc(N(C)CCS(=O)(=O)O)cc1
Mus musculus [4]
  Activity: Active
[8]
  Activity: Active
[3]
  inhibition: Active

## CC(C)c1cccc(C(C)C)c1OC(=O)CN1CCOCC1C (configuration not stated)
[2]
  Retention time: 0.8 min

## Cc1cc(C(=O)c2c(C(C)C)cccc2C(C)C)ccc1N1C(=O)C=CC1=O
[3]
  inhibition: Active

## CC(C)c1cccc(C(C)C)c1Oc1ccc(C[C@@H](N)C(N)=O)cc1
[3]
  inhibition: Active

## CC(C)c1cccc(C(C)C)c1OC(=O)CCN1CCN(C(C)C)CC1.Cl
[1]
  t1/2: > 120 min

## CC1CC(C)CN(CC(=O)Oc2c(C(C)C)cccc2C(C)C)C1 (configuration not stated)
[2]
  Retention time: > 110 min

## Cc1nccn1Cc1ccc(C(=O)c2c(C(C)C)cccc2C(C)C)o1
[3]
  inhibition: Active

## CCN(CC)CC(=O)Oc1c(C(C)C)cccc1C(C)C.Cl
[1]
  t1/2: 4.07 min
Mus musculus [4]
  Activity: Active
Mus musculus [6]
  ED50: 77 µmol/kg
[2]
  Retention time: 11.4 min
[7]
  survival: 100%

## CC(C)c1cccc(C(C)C)c1C(=O)CSc1cccc[n+]1[O-]
[3]
  inhibition: Active

## CC1CN(CCC(=O)Oc2c(C(C)C)cccc2C(C)C)CC(C)O1.Cl (configuration not stated)
[1]
  t1/2: 1.429 min
[2]
  Retention time: 3.1 min

## Cc1cc(COc2c(C(C)C)cccc2C(C)C)cc(C)c1CN
[3]
  inhibition: Active

## CC(C)c1cccc(C(C)C)c1C(=O)c1ccc2c(CN(C)C)c[nH]c2c1
[3]
  inhibition: Active

## CC1CN(CCCOC(=O)Oc2c(C(C)C)cccc2C(C)C)CC(C)O1 (configuration not stated)
[2]
  Retention time: 12.4 min

## CC1CC(C)CN(CCCOC(=O)Oc2c(C(C)C)cccc2C(C)C)C1.Cl (configuration not stated)
[1]
  t1/2: 3.428 min

## CC(C)c1cccc(C(C)C)c1OC(=O)OCCN1CCN(CCO)CC1.Cl
[1]
  t1/2: 63.54 min

## CC(C)c1cccc(C(C)C)c1OC(=O)CN1CCCCC1
Mus musculus [4]
  Activity: Active
[7]
  survival: 100%

## CC(C)c1cccc(C(C)C)c1OC(=O)CN1CCOCC1
[2]
  Retention time: 0.5 min

## COc1ccc(CNc2c(C(C)C)cccc2C(C)C)cc1OCC(N)=O
[3]
  inhibition: Active
